Values joined by “and” are separate entries in the source; they are usually repeats but may differ in a detail not shown here. Equal entries are not always repeated. Where two headings read alike, the source gives them in different places. Positions of bridges follow the written chain, without caps; N, C: chain ends. Non-standard residues stand in square brackets, D forms with d. Residues, ends and D or L forms follow the SMILES beside them. *: point of attachment. Ileψ(thiazoline)Cys = CC[C@H](C)[C@H](N)C1=N[C@H](C(=O)*)CS1; dOrn = NCCC[C@@H](N)C(=O)O; Nle = CCCC[C@H](N)C(=O)O; For = O=C*
Assays:
neutrophils = type: cell-based, rabbit
Experimental: The cytochalasin B was diluted from a stock solution containing 4 mg/ml in dimethyl sulphoxide. […] The mixtures were then incubated for five minutes at 37° C. (the release is completed in one minute of less under these conditions) and the tubes centrifuged at 2500 rpm (1400 g) for five minutes at 4° C.
The total concentration of enzyme was measured by lysing the cells with buffer containing 0.1 percent Triton X-100 (Beckmann Instruments, Inc., Fullerton, Calif.). […] The lactic dehydrogenase of each supernate was measured to insure that the peptides induced no release of this cytoplasmic marker.
The lysosomal enzyme-inducing activity for each peptide was obtained from the dose-response curve as its ED50, i.e., the molar concentration of peptide causing 50 percent of the maximal release of either lysozyme or β-glucuronidase. Again, the lower the value of the ED50, the greater is the lysosomal enzyme secretion-inducing activity.

peritoneal neutrophils = assay: Test for true chemotaxis (Zigmond and Hirsch technique); type: cell-based, rabbit
Excerpt: Increased penetration of cells into or through the filter of a Boyden chamber system under the stimulus of a chemical agent is generally taken as indicating the chemotactic activity of the agent. Zigmond and Hirsch (J. Exp. Med., Volume 137, Page 387, 1973) have pointed out that the increased migration could result from a response directed by the chemical gradient, that is from chemotaxis, or from increased random locomotion or both. These authors have described a technique for determining if the movement of the cells into the filter of a Boyden chamber system under the influence of different gradients is greater than could be expected on the basis of increased rates of locomotion alone and to that extent is due to a true chemotactic response.
In testing f-Met-Leu-Phe-OH for true chemotaxis, 5×10^6 /ml of washed peritoneal neutrophils obtained twelve hours after the administration of 0.1 percent glycogen were suspended in varying concentrations of the peptide and placed in the upper compartment of a modified Boyden chamber. […] Using the micrometer of the fine adjustment of the microscope, the distance was measured from the top of the filter to the farthest plane of focus still containing two cells. This distance was determined across five fields and averaged. […] The test results were analyzed as described by Zigmond and Hirsch. […]

[1] = target: T1, surface receptor of rabbit polymorphonuclear leukocytes (Oryctolagus cuniculus, UniProt Q05394); assay: Inhibition of F-Nle-leu (3H)PHE binding to rabbit PMN
T1 construct: endogenous in cells; host or cells: rabbit polymorphonuclear leukocytes (neutrophils)
T1 sequence (Q05394 1-352): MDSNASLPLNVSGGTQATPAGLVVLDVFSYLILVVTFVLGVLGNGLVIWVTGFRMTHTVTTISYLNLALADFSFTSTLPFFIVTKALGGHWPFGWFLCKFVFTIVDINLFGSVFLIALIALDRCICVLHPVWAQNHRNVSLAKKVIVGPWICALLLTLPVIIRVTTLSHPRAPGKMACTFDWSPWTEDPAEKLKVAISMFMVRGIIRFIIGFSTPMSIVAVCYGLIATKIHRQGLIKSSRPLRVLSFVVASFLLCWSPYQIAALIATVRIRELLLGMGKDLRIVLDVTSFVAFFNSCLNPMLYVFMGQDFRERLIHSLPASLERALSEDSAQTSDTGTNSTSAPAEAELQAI

[2] = system: Rabbit polymorphononuclear leukocytes (neutrophils); type: cell-based; conditions: for times more active than f-Met-Phe-OH: chemotactic activity and lysosomal enzyme secretion-inducing activity alike
Experimental: Rabbit polymorphononuclear leukocytes (neutrophils) were obtained 12 to 14 hours after the intraperitoneal injection of 0.1 percent glycogen, as described in Becker et al (Z. Immunitaetsforsch Exp. Klin. Immunol., Volume 143, Page 466 1972). They were washed in Hanks' balanched salt solution containing 0.01 M tris (hydroxymethyl) aminomethane, pH 7.2, 1 mg/ml of glucose, and 1 mg/ml of crystalline bovine serum albumin. The Hanks' balanced salt solution was the buffer used throughout the work.
The assay employed a modified Boyden chamber as described by Becker et al, supra. […] The loaded chambers were incubated for 30 minutes at 37° C. This time interval was chosen as giving, for the particular batch of filters used, the greatest difference between the number of cells moving into the filter with no peptide in the lower compartment (background) and the maximum number of cells moving into the filter when stimulated by peptide. At the end of the incubation the filters were removed and stained and the number of cells in five high-power (400 magnification) fields (5 HPF) were counted and averaged. The results reported are the means of duplicate chambers.
The migration enhancing activities of different peptides were compared essentially as described by Schiffmann et al (J. Immunol., Volume […], Page 1830, 1975) and Showell et al (J. Immunol., Volume 116, Page 99, 1976). In measuring the relative activity of the peptides, a peptide was diluted so that each concentration was one quarter that of the next higher concentration. The concentrations of peptides were chosen on the basis of preliminary experiments to cover the range giving minimum to maximal activity. The chemotactic activity plotted against the logarithm of the molar concentration of peptide yielded a sigmoidal-shaped dose-response curve. Different peptides tested at the same time with the same cells gave curves which were parallel to each other in their linear portions and had the same maximum. The activities of the different peptides are reported as the ED50, i.e., the concentration of chemotactic factor giving 50 percent of the maximum activity.
The results are reported as the means ED50 ±SE (standard error) as determined by at least three separate experiments. In this assay, the lower the value of the ED50, the greater is the chemotactic activity.

[3] = system: PMN (neutrophil) from human peripheral blood
Experimental: (§1) The neutrophil (PMN) experiments used 3μ nitrocellulose filters and the monocyte (MN) experiments used 5μ polycarbonate filters. PMNs and MNs were prepared from human peripheral blood by Ficoll-Hypaque and dextran sedimentation techniques. […] PMN experiments were incubated at 37° C. for 3 hours, MN experiments for 90 minutes. After this the filters were removed and stained and counted visually with a microscope.

[4] = system: MN (monocyte) from human peripheral blood
Experimental: as §1

[5] = system: Escherichia coli ATCC 25922; assay: Kirby-Bauer disc assay, inhibitory zone size; type: cell-based; conditions: E. coli
Experimental: (§2) In these tables antimicrobial activity is expressed as inhibitory zone size as performed by the Kirby-Bauer assay.
(§3) The experiments in Tables 10-14 were performed using the following bacteria, media and experimental protocol:
(§4) The bacteria were Escherichia coli ATCC 25922 and Pseudomonas aeruginosa ATCC 27835.
(§5) The media was Trypticase soy agar (Baltimore Biological Laboratories, BBL) used as a general growth medium. Broth media was Brain heart infusion broth (BBL) for E. coli and medium 81 [trypticase soy broth without dextrose plus 1% potassium nitrate] for P. aeruginosa.
(§6) Antimicrobial susceptibility was tested on M9 medium [a glucose minimal salts medium (Miller, 1972)] solidified with 1.5% agar (Difco) for the base or 0.7% agar for overlay.
The following is the experimental protocol: Broth cultures of E. coli or P. aeruginosa were grown overnight in broth at 35° C. Cultures were diluted to visually match a 0.5 McFarland turbidity standard (Matsen and Barry, 1974); the numbers of organisms in this suspension ordinarily were .congruent.10^8 viable cells per ml. Ten microliter (ul) was inoculated into 10 ml. of 0.7% M9 agar that was melted and cooled to 46°-50° C. This was overlaid onto a 50 ml base of 1.5% M9 agar in 15 cm diameter petri dishes. The agar overlay was allowed to harden at room temperature for 30 min. Antimicrobial tests disks were placed on the surface of the agar, and the plates were incubated overnight at 35° C. Diameters of zones of inhibition of bacterial growth were measued with a vernier caliper and recorded to the nearest 0.1 mm.

leukocytes = conditions: relatively weak chemoattractants; cited from earlier work
[6] = system: Pseudomonas aeruginosa ATCC 27835; assay: Kirby-Bauer disc assay, inhibitory zone size; type: cell-based; conditions: P. aeruginosa; disc FML alone; 6 mm = disc, no inhibition
Experimental: as §2, §3, §4, §5, §6
The following is the experimental protocol: Broth cultures of E. coli or P. aeruginosa were grown overnight in broth at 35° C. Cultures were diluted to visually match a 0.5 McFarland turbidity standard (Matsen and Barry, 1974); the numbers of organisms in this suspension ordinarily were .congruent.10^8 viable cells per ml. Ten microliter (ul) was inoculated into 10 ml. of 0.7% M9 agar that was melted and cooled to 46°-50° C. This was overlaid onto a 50 ml base of 1.5% M9 agar in 15 cm diameter petri dishes. […] Diameters of zones of inhibition of bacterial growth were measued with a vernier caliper and recorded to the nearest 0.1 mm.

[7] = system: 4 strains of Pseudomonas aeruginosa
Experimental: Antimicrobial activity was assayed by the MIC Technique using 4 strains of Pseudomonas aeruginosa.

[8] = system: Pseudomonas aeruginsa, strain Mangalore; conditions: EXPT 1-3 on separate lines
[9] = system: human polymorphonuclear leukocytes; assay: Chemotaxis for human polymorphonuclear leukocytes; type: cell-based; conditions: human PMN, FIG. 2 text and summary (Table 6)
[10] = molar concentration causing 50 percent of maximal release, 10 μg/ml cytochalasin B, five minutes at 37° C.
[11] = concentration giving 50 percent of maximum activity, mean of at least three experiments, 30 minutes at 37° C.
[12] = [F-Met-Leu-Phe] 10^-6, Sulfadiazine 5 μg
[13] = [F-Met-Leu-Phe] 10^-6, Sulfadiazine 50 μg
[14] = [F-Met-Leu-Phe] 10^-6, Sulfadiazine 100 μg
[15] = [F-Met-Leu-Phe] 10^-7, Sulfadiazine 5 μg
[16] = [F-Met-Leu-Phe] 10^-7, Sulfadiazine 50 μg
[17] = [F-Met-Leu-Phe] 10^-7, Sulfadiazine 100 μg
[18] = [F-Met-Leu-Phe] 10^-7, Sulfadiazine 250 μg
[19] = [F-Met-Leu] 10^-3, Sulfadiazine 5 μg
[20] = [F-Met-Leu] 10^-3, Sulfadiazine 25 μg
[21] = [F-Met-Leu] 10^-3, Sulfadiazine 50 μg
[22] = [F-Met-Leu] 10^-3, Sulfadiazine 100 μg
[23] = [F-Met-Leu] 10^-3, Sulfadiazine 250 μg
[24] = [F-Met-Leu] 10^-4, Sulfadiazine 5 μg
[25] = [F-Met-Leu] 10^-4, Sulfadiazine 25 μg
[26] = [F-Met-Leu] 10^-4, Sulfadiazine 50 μg
[27] = [F-Met-Leu] 10^-4, Sulfadiazine 100 μg
[28] = [F-Met-Leu] 10^-4, Sulfadiazine 250 μg

CSCC[C@H](NC=O)C(=O)N[C@@H](CC(C)C)C(=O)N[C@@H](Cc1ccccc1)C(=O)O [FMLP, formyl-methionyl-leucyl-phenylalanine]
ED50 ± SE B-Glucoronidase (neutrophils; [10]): 2.6 ± 0.32 × 10^-10 M | ED50 ± SE Lysosyme (neutrophils; [10]): 2.4 ± 0.31 × 10^-10 M | distance cells moved farther than predicted (peritoneal neutrophils; positive gradient (peptide below greater than above the filter)): greater than 10 μm | true chemotaxis (experimental vs predicted values) (peritoneal neutrophils; sixty minutes at 37° C., 3.0 μm pore size filter): truly chemotactic | IC50 [1]: 0.5 nM | times more active than f-Met-Phe-OH [2]: 5,000 times | Chemotactic Activity ED50 ± SE [2, 11]: 7.0 ± 1.7 × 10^-11 M

Nc1ccc(S(=O)(=O)Nc2ncccn2)cc1 [Sulfadiazine, sulfadiazine]
% Inhibition PMN [3, 12]: 10.0% | % Inhibition PMN ([3]; [F-Met-Leu-Phe] 10^-6, Sulfadiazine 25 μg): 8.0% | % Inhibition PMN [3, 13]: 39.5% | % Inhibition PMN [3, 14]: 49.0% | % Inhibition PMN [3, 15]: 16.8% | % Inhibition PMN ([3]; [F-Met-Leu-Phe] 10^-7, Sulfadiazine 25 μg): 18.0% | % Inhibition PMN [3, 16]: 65.8% | % Inhibition PMN [3, 17]: 70.8% | % Inhibition PMN [3, 18]: 88.0% | % Inhibition PMN [3, 19]: 19.0% | % Inhibition PMN [3, 20]: 38.0% | % Inhibition PMN [3, 21]: 48.7% | % Inhibition PMN [3, 22]: 73.3% | % Inhibition PMN [3, 23]: 83.9% | % Inhibition PMN [3, 24]: 1.0% | % Inhibition PMN [3, 25]: 14.0% | % Inhibition PMN [3, 26]: 37.5% | % Inhibition PMN [3, 27]: 53.0% | % Inhibition PMN [3, 28]: 41.0% | % Inhibition MN [4, 12]: 22.5% | % Inhibition MN [4, 13]: 21.0% | % Inhibition MN [4, 14]: 82.0% | % Inhibition MN [4, 15]: 14.6% | % Inhibition MN [4, 16]: 13.7% | % Inhibition MN [4, 17]: 41.7% | % Inhibition MN [4, 18]: 96.6% | % Inhibition MN [4, 19]: 2.5% | % Inhibition MN [4, 20]: 13.0% | % Inhibition MN [4, 21]: 36.7% | % Inhibition MN [4, 22]: 43.3% | % Inhibition MN [4, 23]: 98.0% | % Inhibition MN [4, 24]: 20.0% | % Inhibition MN [4, 25]: 17.5% | % Inhibition MN [4, 26]: 17.0% | % Inhibition MN [4, 27]: 60.0% | % Inhibition MN [4, 28]: 97.5% | Zone Diameter ([5]; disc 10 μg, alone): 28.0 mm | Zone Diameter ([5]; disc 25 μg, alone): 32.0 mm

CC[C@H](C)[C@H](N)C1=N[C@H](C(=O)N[C@@H](CC(C)C)C(=O)N[C@H](CCC(=O)O)C(=O)N[C@H](C(=O)N[C@H]2CCCCNC(=O)[C@H](CC(N)=O)NC(=O)[C@@H](CC(=O)O)NC(=O)[C@H](Cc3cnc[nH]3)NC(=O)[C@@H](Cc3ccccc3)NC(=O)[C@H]([C@@H](C)CC)NC(=O)[C@@H](CCCN)NC2=O)[C@@H](C)CC)CS1 [bacitracin] ({Ileψ(thiazoline)Cys}-L[dE]IK[dOrn]I[dF]H[dD]N; lactam 4-C)
chemoattractant concentration (leukocytes): 10^-5 to 10^-6 M

CSCC[C@H](NC=O)C(=O)N[C@@H](CC(C)C)C(=O)O [f--Met--Leu--OH] (For-Met-Leu-OH)
ED50 ± SE Lysosyme (neutrophils; [10]): 1.7 ± 0.17 × 10^-6 M | Zone Diameter ([5]; disc FML alone, 6 mm = disc, no inhibition): 6.0 mm | Chemotactic Activity ED50 ± SE [2, 11]: 4.0 ± 0.45 × 10^-7 M | Zone Diameter [6]: 6.0 mm

CSCC[C@H](NC=O)C(=O)N[C@@H](CC(C)C)C(=O)N[C@@H](Cc1ccccc1)C(=O)N[C@@H](CCCCN)C(=O)O [f--Met--Leu--Phe--Lys--OH] (For-MLFK-OH)
ED50 ± SE B-Glucoronidase (neutrophils): 1.9 ± 0.3 × 10^-9 M | ED50 ± SE Lysosyme (neutrophils): 1.7 ± 0.5 × 10^-9 M | Chemotactic Activity ED50 ± SE [2]: 7.0 ± 1.0 × 10^-10 M | times more active than f-Met-Phe-OH [2]: 500 times

CSCC[C@H](NC(=O)[C@H](CCSC)NC(=O)[C@H](CCSC)NC(=O)[C@H](CCSC)NC=O)C(=O)O [f--Met--Met--Met--Met--OH] (For-MMMM-OH)
ED50 ± SE B-Glucoronidase (neutrophils): 3.0 ± 0.73 × 10^-9 M | ED50 ± SE Lysosyme (neutrophils): 2.4 ± 0.34 × 10^-9 M | Chemotactic Activity ED50 ± SE [2]: 3.0 ± 0.13 × 10^-10 M

CSCC[C@H](NC=O)C(=O)N[C@@H](CCSC)C(=O)N[C@@H](Cc1ccccc1)C(=O)O [f--Met--Met--Phe--OH] (For-Met-Met-Phe-OH)
ED50 ± SE B-Glucoronidase (neutrophils): 1.8 ± 0.24 × 10^-9 M | ED50 ± SE Lysosyme (neutrophils): 1.9 ± 0.4 × 10^-9 M | Chemotactic Activity ED50 ± SE [2, 11]: 2.1 ± 0.49 × 10^-10 M

CSCC[C@H](NC=O)C(=O)N[C@@H](Cc1ccccc1)C(=O)O [f--Met--Phe--OH] (For-Met-Phe-OH)
ED50 ± SE B-Glucoronidase (neutrophils): 2.0 ± 0.42 × 10^-6 M | ED50 ± SE Lysosyme (neutrophils; [10]): 1.5 ± 0.39 × 10^-6 M | Chemotactic Activity ED50 ± SE [2, 11]: 4.1 ± 0.95 × 10^-7 M

CCCC[C@H](NC=O)C(=O)N[C@@H](CC(C)C)C(=O)N[C@@H](Cc1ccccc1)C(=O)O [f--Nle--Leu--Phe--OH] (For-[Nle]-Leu-Phe-OH)
ED50 ± SE B-Glucoronidase (neutrophils): 1.9 ± 0.2 × 10^-9 M | ED50 ± SE Lysosyme (neutrophils): 1.5 ± 0.2 × 10^-9 M | Chemotactic Activity ED50 ± SE [2]: 6.6 ± 1.2 × 10^-10 M

CSCC[C@H](NC=O)C(=O)N[C@@H](Cc1ccccc1)C(=O)N[C@@H](CC(C)C)C(=O)O [f-Met-Phe-Leu-OH] (For-Met-Phe-Leu-OH)
times less active than f-Met-Leu-Phe-OH ([2]; chemotactic and lysosomal enzyme secretion-inducing activities): 500 times

formyl-Met-Leu-phe-silver sulfadiazine [FMLP-AgSDZ]
concentration at which all strains were inhibited (MIC Technique) [7]: 80 μm/ml | MIC at 24h [8]: 40 μg/m and 80 μg/m | ID50, molar concentration which displaced 50% of a labeled attractant from the cell receptor ([1]; F-Nle-leu (3H)PHE, rabbit PMN): 2 nM | ED50, M concentration giving 50% max activity [9]: 96 nM | ED50, M concentration giving 50% max activity ([9]; listed as FMLP--AgSDZ): 78 nM

gramicidin
chemoattractant concentration (leukocytes): 10^-5 to 10^-6 M

tyrocidin
chemoattractant concentration (leukocytes): 10^-5 to 10^-6 M
